In ChEMBL document CHEMBL4385609, “Anti-tubulin agents of natural origin: Targeting taxol, vinca, and colchicine binding domains” (Eur J Med Chem, 2019):
Converted amounts (≈) assume the structure as drawn. One block for each compound: values may come before it.

Columns and labels:
[1] = Cytotoxicity against mouse tsFT210 cells; type: functional
[2] = Antiproliferative activity against human […] cells assessed as reduction in cell growth incubated for 48 hrs by MTT assay; type: functional, cell-based
A549 [3] = assay: Antiproliferative activity against human A549 cells assessed as reduction in cell growth incubated for 48 hrs by MTT assay; type: functional, cell-based; details: A549, 48 h
HeLa [4] = assay: Antiproliferative activity against human HeLa cells assessed as reduction in cell growth incubated for 48 hrs by MTT assay; type: functional, cell-based
K562 = assay: Antiproliferative activity against human K562 cells assessed as reduction in cell growth incubated for 48 hrs by MTT assay; type: functional, cell-based; details: K562, 48 h
[5] = Antiproliferative activity against human MCF cells assessed as reduction in cell growth incubated for 48 hrs by MTT assay; type: functional, cell-based
WiDr = assay: Antiproliferative activity against human WiDr cells assessed as reduction in cell growth incubated for 48 hrs by MTT assay; type: functional, cell-based
P388 [6] = assay: Antiproliferative activity against mouse P388 cells assessed as reduction in cell growth incubated for 48 hrs by MTT assay; type: functional, cell-based; details: P388, 48 h
CA46 = assay: Cytotoxicity against human CA46 cells assessed as inhibition of tubulin polymerization after 36 hrs; type: functional, cell-based; details: CA46, 36 h
BGC-823 = assay: Antiproliferative activity against human BGC823 cells assessed as reduction in cell growth incubated for 24 hrs by MTT assay; type: functional, cell-based; details: BGC-823, 24 h
Tubulin = assay: Inhibition of tubulin polymerization (unknown origin); type: protein-complex assay, Homo sapiens
MCF7 = assay: Antiproliferative activity against human MCF7 cells assessed as reduction in cell growth; type: functional, cell-based
Bos taurus = species on record: Bos taurus; assay: Inhibition of bovine brain microtubule assembly at 250 uM by turbidimetric assay relative to control
MDA-MB-231 = assay: Antiproliferative activity against human MDA-MB-231 cells assessed as reduction in cell growth; type: functional, cell-based
HeLa [7] = assay: Antiproliferative activity against human HeLa cells assessed as reduction in cell growth; type: functional, cell-based
[8] = Antiproliferative activity against mouse EMT6/AR1 cells assessed as reduction in cell growth; type: functional, cell-based
[9] = Potency index, ratio of paclitaxel IC50 to laulimalide IC50 for cytotoxicity against human SKVLB-1 cells; type: functional
[10] = Antiproliferative activity against human MEL28 cells assessed as reduction in cell growth; type: functional, cell-based; details: SK-MEL-28
A549 [11] = assay: Antiproliferative activity against human A549 cells assessed as reduction in cell growth; type: functional, cell-based
HT-29 = assay: Antiproliferative activity against human HT-29 cells assessed as reduction in cell growth; type: functional, cell-based
U-937 = assay: Antiproliferative activity against human U937 cells assessed as reduction in cell growth; type: functional, cell-based
P388 [12] = assay: Antiproliferative activity against mouse P388 cells assessed as reduction in cell growth; type: functional, cell-based
SKM-1 = assay: Antiproliferative activity against human SKM1 cells assessed as reduction in cell growth; type: functional, cell-based
A549 [13] = assay: Antiproliferative activity against human A549 cells assessed as reduction in cell growth incubated for 24 hrs by MTT assay; type: functional, cell-based; details: A549, 24 h
A-375 = assay: Antiproliferative activity against human A375 cells assessed as reduction in cell growth incubated for 24 hrs by MTT assay; type: functional, cell-based; details: A-375, 24 h

Structure (SMILES): CC(C)=CCc1[nH]c2ccccc2c1C[C@@H]1NC(=O)[C@@H]2CCCN2C1=O [TRYPROSTATIN B]
- MIC [1]: 4.4 µM (≈ 1.55 µg/mL)

- IC50 (A549 [3]): 180 to 330 nM
- IC50 (HeLa [4]): 180 to 330 nM
- IC50 (K562): 180 to 330 nM
- IC50 (P388 [6]): 180 to 330 nM
Structure (SMILES): C=CC(C)(C)c1[nH]cnc1/C=C1\NC(=O)[C@H](Cc2ccccc2)NC1=O
- IC50 [2]: 180 to 330 nM
- IC50 [5]: 180 to 330 nM
- IC50 (WiDr): 180 to 330 nM

Structure (SMILES): COc1ccc(-c2oc3cc(O)c(OC)c(O)c3c(=O)c2OC)cc1O [CENTAUREIDIN]
- IC50 (CA46): 2000 nM

Structure (SMILES): CC[C@@]1(C)Oc2cc(c([S+]([O-])C[C@@H](O)C[C@H](N)C(=O)O)cc2O)[C@@H](O)[C@H](NC)C(=O)N[C@@H](C)C(=O)NC1C(=O)NCC(=O)O (some centres undefined)
- IC50 (BGC-823): 1030 nM

- IC50 (Tubulin): 1400 nM
Structure (SMILES): CC(C)(C)c1[nH]cnc1/C=c1\[nH]c(=O)/c(=C/C(=O)c2ccccc2)[nH]c1=O

- IC50 (MCF7): 30 nM
Structure (SMILES): C=CCC1(CC/C(C)=C/C=C/CC/C=C\[C@]2(C)CSC([C@@H]3C[C@@H]3C)=N2)OCCO1

Structure (SMILES): COc1ccc2c(C[C@@H]3NC(=O)[C@@H]4CCCN4C3=O)c(CC=C(C)C)[nH]c2c1 [TRYPROSTATIN A]
- MIC [1]: 16.4 µM (≈ 6.26 µg/mL)
- inhibition (Bos taurus): 40%

- IC50 (MDA-MB-231): 120 nM
Structure (SMILES): COc1cc(/C=N/OC/C=C/C=C(\C)CCC(O)c2cccs2)cc(OC)c1OC (centres undefined)

Structure (SMILES): COc1cc2cc(c1Cl)N(C)C(=O)C[C@H](OC(=O)C(C)C)[C@]1(C)O[C@@H]1[C@H](C)[C@@H]1C[C@@](O)(NC(=O)O1)[C@H](OC)/C=C/C=C(\C)C2 [ANSAMITOCIN P3]
- IC50 (MCF7): 2.06 nM
- IC50 (HeLa [7]): 5.06 nM
- IC50 [8]: 141 nM
- IC50 (MDA-MB-231): 15.1 nM

Structure (SMILES): C=C1C[C@H](C)C[C@@H]2CC=C[C@@H](C/C=C\C(=O)O[C@H]([C@@H](O)/C=C/[C@@H]3CC(C)=CCO3)C[C@@H]3O[C@H]3[C@@H](O)C1)O2 [FIJIANOLIDE B]
- Ratio IC50 [9]: 100

Structure (SMILES): C=C1C[C@@H]2C/C=C/C(=O)C/C(C)=C\C=C\C(=O)O[C@H]([C@H](O)NC(=O)/C=C\C=C\C)C/C(C)=C/[C@H](C1)O2 [ZAMPANOLIDE]
- IC50 [10]: 1 to 5 ng/mL (≈ 2.02 to 10.1 nM)
- IC50 (A549 [11]): 1 to 5 ng/mL (≈ 2.02 to 10.1 nM)
- IC50 (HT-29): 1 to 5 ng/mL (≈ 2.02 to 10.1 nM)
- IC50 (U-937): 2.9 nM
- IC50 (P388 [12]): 1 to 5 ng/mL (≈ 2.02 to 10.1 nM)
- IC50 (SKM-1): 1.1 nM

Structure (SMILES): CC(C)(C)c1[nH]cnc1/C=c1\[nH]c(=O)/c(=C/c2cc(F)ccc2F)[nH]c1=O
- IC50 (Tubulin): 2.6 nM

- IC50 (A549 [13]): 36.5 µM
- IC50 (A-375): 22.5 µM
Structure (SMILES): CC[C@@]1(C)Oc2cc(c([S+]([O-])CCCCCO)cc2O)[C@@H](O)[C@H](NC)C(=O)N[C@@H](C(C)C)C(=O)NC1C(=O)NCC(=O)O (some centres undefined)
